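In this assay, cells in 96-well plates receive the compound at five concentrations for 48 hours. Endpoints are linearly interpolated between the surrounding concentrations. At the GI50, growth is halved. TGI: total growth inhibition.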
Tests used:
Assay in all cases: growth of human tumour cells (NCI), 48 h
786-0 renal = tested on: 786-0 renal
A498 renal = tested on: A498 renal
A549 NSCLC = tested on: A549 NSCLC
ACHN renal = tested on: ACHN renal
CAKI-1 renal = tested on: CAKI-1 renal
CCRF-CEM leukemia = tested on: CCRF-CEM leukemia
COLO 205 colon = tested on: COLO 205 colon
DU-145 prostate = tested on: DU-145 prostate
EKVX NSCLC = tested on: EKVX NSCLC
HCC-2998 colon = tested on: HCC-2998 colon
HCT-116 colon = tested on: HCT-116 colon
HCT-15 colon = tested on: HCT-15 colon
HL-60(TB) leukemia = tested on: HL-60(TB) leukemia
HOP-62 NSCLC = tested on: HOP-62 NSCLC
HS 578T breast = tested on: HS 578T breast
HT29 colon = tested on: HT29 colon
IGROV1 ovarian = tested on: IGROV1 ovarian
K-562 leukemia = tested on: K-562 leukemia
KM12 colon = tested on: KM12 colon
LOX IMVI melanoma = tested on: LOX IMVI melanoma
M14 melanoma = tested on: M14 melanoma
MALME-3M melanoma = tested on: MALME-3M melanoma
MCF7 breast = tested on: MCF7 breast
MDA-MB-231 breast = tested on: MDA-MB-231 breast
MDA-MB-435 = tested on: MDA-MB-435
MOLT-4 leukemia = tested on: MOLT-4 leukemia
NCI-H226 lung = tested on: NCI-H226 lung
NCI-H23 lung = tested on: NCI-H23 lung

O=C(N/N=C/c1ccc([N+](=O)[O-])cc1)c1ccccc1Nc1ccnc(C(F)(F)F)c1
GI50 (786-0 renal): 32.7 µM | TGI (786-0 renal): > 100 µM | GI50 (A498 renal): 10.5 µM | TGI (A498 renal): 43.7 µM | GI50 (A549 NSCLC): 15.4 µM | TGI (A549 NSCLC): 66 µM | GI50 (ACHN renal): 7.89 µM | TGI (ACHN renal): 73 µM | GI50 (CAKI-1 renal): 13.5 µM | TGI (CAKI-1 renal): 36.4 µM | GI50 (CCRF-CEM leukemia): > 100 µM | TGI (CCRF-CEM leukemia): > 100 µM | GI50 (COLO 205 colon): 18.2 µM | TGI (COLO 205 colon): 39.8 µM | GI50 (DU-145 prostate): 11.9 µM | TGI (DU-145 prostate): 45.5 µM | GI50 (EKVX NSCLC): 14.6 µM | TGI (EKVX NSCLC): 59.5 µM | GI50 (HCC-2998 colon): 17.9 µM | TGI (HCC-2998 colon): 49.5 µM | GI50 (HCT-116 colon): 20 µM | TGI (HCT-116 colon): 70.2 µM | GI50 (HCT-15 colon): 3.8 µM | TGI (HCT-15 colon): > 100 µM | GI50 (HL-60(TB) leukemia): 14.2 µM | TGI (HL-60(TB) leukemia): 47.3 µM | GI50 (HOP-62 NSCLC): 31.2 µM | TGI (HOP-62 NSCLC): 95.1 µM | GI50 (HS 578T breast): 2.26 µM | TGI (HS 578T breast): 49.8 µM | GI50 (HT29 colon): 30.7 µM | TGI (HT29 colon): > 100 µM | GI50 (IGROV1 ovarian): 6.25 µM | TGI (IGROV1 ovarian): 19.2 µM | GI50 (K-562 leukemia): 11 µM | TGI (K-562 leukemia): > 100 µM | GI50 (KM12 colon): 2.75 µM | TGI (KM12 colon): 55.4 µM | GI50 (LOX IMVI melanoma): 19.8 µM | TGI (LOX IMVI melanoma): > 100 µM | GI50 (M14 melanoma): 19.2 µM | TGI (M14 melanoma): 58.7 µM | GI50 (MALME-3M melanoma): 10.7 µM | TGI (MALME-3M melanoma): 33.6 µM | GI50 (MCF7 breast): 19.9 µM | TGI (MCF7 breast): 45.6 µM | GI50 (MDA-MB-231 breast): 21.7 µM | TGI (MDA-MB-231 breast): 77.1 µM | GI50 (MDA-MB-435): 14.7 µM | TGI (MDA-MB-435): 35.1 µM | GI50 (MOLT-4 leukemia): 5.33 µM | TGI (MOLT-4 leukemia): 40.5 µM | GI50 (NCI-H226 lung): 15.5 µM | TGI (NCI-H226 lung): 74.3 µM | GI50 (NCI-H23 lung): 9.47 µM

— PubChem BioAssay (NCI)
